According to patent US10308939B2, “Use of an miRNA to reduce proliferation of a cancer cell” (Board of Supervisors of Louisiana State University and …, priority 2014, dated 2019):

Key:
Assay type in all cases: cell-based, human
miR-3189-3p = assay: qRT-PCR of miR-3189-3p expression in drug-treated LN-229 cells; conditions: for miR-3189-3p relative expression compared to untreated cells: LN-229, 48 h (FIG. 6E)
Method: (§1) Quantitative RT-PCR: Total RNA was isolated using the miRVana miRNA extraction kit (Ambion, Austin, Tex., USA). RNA was reverse transcribed using the High Capacity cDNA Reverse Transcription kit for mRNAs or TaqMan assays for microRNAs (Applied Biosystems, Carlsbad, Calif.). Quantitative real-time PCR was performed in duplicate using a Roche LightCycler 480 Real-Time PCR System (Indianapolis, Ind., USA). Each sample was normalized using GAPDH or RNU6B control (ΔCt) and relative quantification of gene expression was calculated using the comparative Ct (2^−ΔΔCt) method, as described in (Eletto et al., (2008) J. Cell. Physiol. 216: 764-770; Pacifici et al., (2013) J. Cell. Physiol. 228: 1070-1075; Rom et al., (2010) FASEB J. 24: 2292-2300 incorporated herein by reference in their entireties). For the clinical samples relative quantification was represented as 1/ΔCt to maintain real differences in Ct values between samples.

GDF15 mRNA [1] = assay: qRT-PCR of GDF15 expression in drug-treated LN-229 cells
Method: as §1
To further analyze the effects of fenofibrate on this gene, the human glioblastoma cell lines, LN-229 and U87MG were exposed to 50 μM fenofibrate and monitored the expression of GDF15 at 24 and 48 h time points. […] Following the treatment, total RNA was extracted and subjected to quantitative real-time PCR (qRT-PCR) using GDF15-specific and GAPDH-specific primers. The results in FIG. 6A show a 60- and 35-fold up-regulation of GDF15 gene expression in the two cell lines.

miR-3189-5p = assay: qRT-PCR of miR-3189-5p expression in fenofibrate-treated LN-229 and U87MG cells; conditions: fenofibrate treatment, 48 h
Method: as §1

GDF15 [2] = assay: ELISA of secreted mature GDF15 in LN-229 culture medium; conditions: LN-229, 48 h following treatment
Method: ELISA Assay: Mature GDF15 was detected in the cell culture medium using the GDF15 Quantikine ELISA kit from R&D Systems (Minneapolis, Minn.), according to the manufacturer's instructions. Sample absorbance was measured at 450 nm using a Bio-Rad Benchmark Plus microplate reader.

GDF15 mRNA [3] = assay: qRT-PCR of GDF15 expression in fenofibrate-treated U87MG cells; conditions: 50 μM, 24 and 48 h time points
Method: as §1
To further analyze the effects of fenofibrate on this gene, the human glioblastoma cell lines, LN-229 and U87MG were exposed to 50 μM fenofibrate and monitored the expression of GDF15 at 24 and 48 h time points. […] Following the treatment, total RNA was extracted and subjected to quantitative real-time PCR (qRT-PCR) using GDF15-specific and GAPDH-specific primers. […]

Ago2 immunocomplexes = assay: RNA-binding protein immunoprecipitation (RIP) with Ago2 antibody; conditions: extracts from FF-treated LN-229 cells
Method: RNA-Binding Protein Immunoprecipitation (RIP): RIP assay was performed using Argonaute 2 (Ago2) antibody from Millipore (RIPAb+Ago2 RIP). This kit included negative control mouse IgG antibody and control primers specific for human FOS, which were utilized for the optimization of Ago2-IP in the cellular model. The RIP Ago-IP was performed essentially as previously described (Curtale et al., (2013) Proc. Nat. Acad. Sci. U.S.A. 110: 11499-11504). In brief, 10×10^6 LN-229 cells were used for Ago2-IP and for the IgG isotype control; 2×10^6 cells were used for the extraction of total RNA and for total protein lysates. The cell monolayer was washed twice with cold PBS, and lysed in 500 μl of Lysis Buffer (150 mM KCl, 25 mM Tris-HCl pH 7.4, 5 mM EDTA, 0.5% NP40, 5 mM DTT) supplemented with 10 mM Protease Inhibitor Cocktail, 10 mM PMSF, 10 mM Phosphatase Inhibitor, 10 mM Na3VO4 and 100 U/ml RNase Inhibitor (Applied Biosystems). After 30 min of incubation on ice, lysates were centrifuged for 30 min at 14,000 rpm at 4° C. in a microcentrifuge. 30 μL of Protein A/G Magnetic Beads (Pierce, Thermo Scientific, Waltham, Mass.) were washed three times with Blocking Solution (0.5% BSA dissolved in DPBS+/+) and incubated for 1 h at 4° C. with 5 μg of anti-Ago2 mouse monoclonal IgG1κ or with isotype IgG1κ control antibodies (Millipore). The immunocomplexes were washed three times with Blocking Solution. […]

GDF15 [4] = assay: Western blot of GDF15 protein in fenofibrate-treated LN-229 cells; conditions: LN-229, fenofibrate treatment
Method: (§2) Western Blot Analysis: Cells were collected by gently scraping in the presence of PBS (Gibco, Life Technologies), followed by centrifugation and disruption of the cell pellet in lysis buffer (50 mM HEPES, pH 7.5, 150 mM NaCl, 1.5 mM MgCl2, 1 mM EGTA, pH 8.4, 10% glycerol, 1% Triton X-100, 1 mM PMSF, 1 mM sodium orthovanadate (NA3VO4), Phosphatase and Protease Inhibitor Cocktails (Sigma). Whole-cell lysates (30 to 70 μg) were separated on a 4-15% SDS-PAGE gel (Bio-Rad, Hercules, Calif.). GDF15 and E2F-1 antibodies were purchased from Cell Signaling Technology (Beverly, Mass.). The antibody to detect p63RhoGEF was obtained from GeneTex (Irvine, Calif.). GDF15 antibody was purchased from R&D Systems (Minneapolis, Minn.), and anti-GRB2 was from BD Transduction Laboratories (San Jose, Calif.). SF3B2 and 14-3-3ζ antibodies were obtained from Santa Cruz Biotechnology.

E2F-1 = assay: Western blot of E2F-1 protein in LN-229 cells; conditions: co-transfected with miR-3189-3p
Method: as §2

SF3B2 3′UTR = assay: Dual luciferase assay, psiCHECK2/SF3B2 3′UTR in LN-229 cells; conditions: co-transfected with miR-3189-3p mimic
Description: (§3) Cloning for microRNA Functional Analysis: The genomic sequence corresponding to the 3′UTR of p63RhoGEF was PCR amplified from LN-229 cells. This PCR product was ligated into the multiple cloning sites downstream of the Renilla luciferase reporter gene in the psiCHECK-2 vector (Promega, Madison, Wis.). This vector also contains a firefly luciferase reporter sequence, which allows for normalization of transfection efficiency. The primers used were: forward, 5′-[…] (SEQ ID NO: 7), containing the XhoI restriction site (underlined) and reverse, 5′-[…] (SEQ ID NO: 8), containing the NotI restriction site (underlined). The genomic sequence corresponding to the 3′UTR of SF3B2 was also cloned into the psiCHECK-2 vector. The primers used were: forward, 5′-[…] (SEQ ID NO: 9), containing the XhoI restriction site (underlined) and reverse, 5′-[…] (SEQ ID NO: 10) containing the NotI restriction site (underlined).
(§4) The oligonucleotides for the mutagenesis of p63RhoGEF sites were as follows: site 1 forward, 5′-[…] (SEQ ID NO: 11), site 2 forward, 5′-[…] (SEQ ID NO: 12), and site 3 forward, 5′-[…] (SEQ ID NO: 13). […]
(§5) After 24 h, cells were harvested and lysates were assayed for luciferase activity with the Dual-Luciferase Reporter Assay System (Promega) using a Synergy 2 microplate reader (BioTek Instruments, Inc., Winooski, Vt.). […]

SF3B2 mRNA = assay: qRT-PCR of SF3B2 mRNA in transfected LN-229 and U87MG cells; conditions: co-expressed with miR-3189-3p
Method: as §1

LN-229 cells = assay: Rescue from fenofibrate-induced cell death; conditions: LN-229 cells treated with fenofibrate
LN-229 and U87MG cells = assay: Cell proliferation assay (MTS)
Method: For transfection experiments, cells were seeded at a density of 4×10^5 cells/60 mm dish or 2.5×10^4 cells/well in 12-well plates, and transfected using Lipofectamine 2000 (Life Technologies, Grand Island, N.Y.) per manufacturer's instructions. SF3B2 and p63RhoGEF siRNAs and controls were purchased from Santa Cruz (Santa Cruz, Calif.), and were used at the final concentration of 10 nM. Human PPARα siRNA was the ON-TARGET plus SMART pool from Thermo Scientific Dharmacon (Lafayette, Colo.), and it was used at the final concentration of 100 nM. The PPARα […] WY146,43 was from Cayman Chemical (St. Louis, Mo.). For the transient transfection experiments, cells were seeded at a density of 4×10^5 cells/60 mm dish or 2.5×10^4 cells/well in 12-well plates, and transfected using Lipofectamine 2000 reagent (Life Technologies) per manufacturer's instructions.
At 72 h after transfection, cells were incubated with medium containing 3-(4,5-dimethylthiazol-2-yl)-5-(3-carboxymethoxyphenyl)-2-(4-sulfophenyl)-2H-tetrazolium (MTS) reagent (Promega) diluted according to manufacturer's instructions. Cells were then incubated at 37° C. for 30-60 min and absorbance was measured at a wavelength of 490 nm using a Bio-Rad Benchmark Plus microplate reader.

p63RhoGEF mRNA = assay: qRT-PCR of p63RhoGEF mRNA in transfected LN-229 and U87MG cells; conditions: co-expressed with miR-3189-3p
Method: as §1

p63RhoGEF 3′UTR = assay: Dual luciferase assay, psiCHECK2/p63RhoGEF 3′UTR in LN-229 cells; conditions: co-transfected with miR-3189-3p mimic
Description: as §3, §4, §5

[5] = 48 h after treatment/transfection, with fenofibrate

## Cc1cccc(Nc2cc(Cl)nc(SCC(=O)O)n2)c1C [WY146,43]
miR-3189-3p; [5]
  impact on miR-3189-3p levels triggered by fenofibrate: no significant impact
GDF15 mRNA [1]; [5]
  impact on GDF15 levels triggered by fenofibrate: no significant impact

## COc1cccc2c1C(=O)c1c(O)c3c(c(O)c1C2=O)C[C@@](O)(C(=O)CO)C[C@@H]3O[C@H]1C[C@H](N)[C@H](O)[C@H](C)O1 [doxorubicin]
miR-3189-3p
  miR-3189-3p relative expression compared to untreated cells: only in fenofibrate treated cells

## CC(C)OC(=O)C(C)(C)Oc1ccc(C(=O)c2ccc(Cl)cc2)cc1 [fenofibrate, propan-2-yl 2-{4-[(4-chlorophenyl)carbonyl]phenoxy}-2-methylpropanoate]
miR-3189-5p
  expression of miR-3189-5p: did not change
GDF15 [2]
  secreted GDF15: significant levels
miR-3189-3p
  miR-3189-3p relative expression compared to untreated cells: 4.8 fold
GDF15 mRNA [3]
  up-regulation of GDF15 gene expression: 35 fold
GDF15 mRNA [1]; 50 μM, 24 and 48 h time points, LN-229
  up-regulation of GDF15 gene expression: 60 fold
GDF15 mRNA [1]; LN-229, 48 h, comparison with doxorubicin and paclitaxel (FIG. 6E)
  GDF15 mRNA up-regulation relative to untreated cells: more than 60 folds
Ago2 immunocomplexes
  overexpression of miR-3189-3p linked to Ago2 immunocomplexes compared to untreated cells: ~35 fold
GDF15 [4]
  GDF15 protein content: large increase

## CC(=O)O[C@H]1C(=O)[C@@]2(C)[C@H]([C@H](OC(=O)c3ccccc3)[C@]3(O)C[C@H](OC(=O)[C@H](O)[C@@H](NC(=O)c4ccccc4)c4ccccc4)C(C)=C1C3(C)C)[C@]1(OC(C)=O)CO[C@@H]1C[C@@H]2O [paclitaxel]
miR-3189-3p
  miR-3189-3p relative expression compared to untreated cells: only in fenofibrate treated cells

## anti-miR-3189-3p: miR-3189-3p mirVana miRNA inhibitor (SEQ ID NO: 22) purchased from Life Technologies (UGCCCCAUCUGUGCCCUGGGUAGGA; listed as RNA, chemistry not given here)
E2F-1
  effect on miR-3189-3p down-regulation of E2F-1: reversed
SF3B2 3′UTR
  effect on miR-3189-3p inhibition of SF3B2 3′UTR reporter: almost completely alleviated
SF3B2 mRNA
  effect on miR-3189-3p downregulation of SF3B2 transcript: counteracted
LN-229 cells
  rescue from fenofibrate-induced cell death: did not rescue
LN-229 and U87MG cells; co-transfected with miR-3189-3p
  changes in proliferation and cell cycle on co-transfection with miR-3189-3p: No significant changes
p63RhoGEF mRNA
  effect on miR-3189-3p downregulation of p63RhoGEF transcript: counteracted
p63RhoGEF 3′UTR
  effect on miR-3189-3p inhibition of p63RhoGEF 3′UTR reporter: efficiently reverted

## miR-3189-5p: mature microRNA of 25 nucleotides from the miR-3189 stem-loop (SEQ ID NO: 21) (GUUGCCCCAUCUGUGCCCUGGGUAGGA; listed as RNA, chemistry not fully specified)
LN-229 and U87MG cells; transfection of LN-229 and U87MG cells
  changes in cell morphology, cell proliferation and migration: did not elicit changes in cell morphology, nor inhibited cell proliferation and migration
